From patent publication US20110053773A1, “METHODS OF IMPROVING NUTRITIONAL VALUE OF PLANTS” (UNIVERSITY OF TENNESSEE RESEARCH FOUNDATION, priority 2009, published 2011)

Key:
[1] = system: basil 'Genovese'; assay: Content analysis of basil: protein, minerals (Example 4, Tables 10-11); assay type: in vivo; conditions: 28 DA-A
In short: (§1)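 Postemergence greenhouse applications of chlorpyrifos, chlorothalonil, mepiquat-chloride, paclobutrazol, napthalic anhydride or isoxadifen-ethyl. Injury rated visually for phytotoxicity, chlorosis and stunting on a 0–100% scale (0 = no response, 100 = plant death). Plants harvested ~4 weeks after treatment, pooled over replicates for nutrient content analysis.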

[2] = system: kale 'Red Russian'; assay: Visual injury of kale after insecticide, fungicide, PGRs, safeners (Example 4)
Procedure: (§2) Greenhouse and laboratory studies were conducted to ascertain the tolerance and nutritional quality differences following postemergence applications of the insecticide chlorpyrifos, the fungicide chlorothalonil, the PGRs mepiquat-chloride and paclobutrazol, and the safeners napthalic anhydride and isoxadifen-ethyl on kale ‘Red Russian’ and basil ‘Genovese’. Visual injury was rated based on general phytotoxicity, chlorosis, and visual stunting and each measurement was based on a percent scale from 0 to 100 where 0 equals no visual response and 100 equals complete plant death. Kale and basil were both harvested approximately 4 weeks after treatments and plants were pooled over replicates for content analysis of crude protein, crude amino acid content, acid detergent fiber, neutral detergent fiber, total fatty acids, and/or key mineral content (including Na, Ca, P, Mg, K, Fe, Mn, Zn, and Cu). In addition, the amounts of key individual amino acids (aspartic acid, threonine, glutamic acid, proline, glycine, cysteine, valine, leucine, isoleucine, methionine, and lysine) and composite classifications of fatty acid (saturated fatty acids, monounsaturated fatty acids, polyunsaturated fatty acids) were also analyzed from these sub-samples for kale (Tables 10-14).

[3] = system: kale ‘Red Russian’; assay: Yield, fresh weight of kale after insecticide, fungicide and PGRs (Example 4, Table 12); assay type: in vivo; conditions: 28 DA-A, Untreated Check 106.9
Procedure: as §2

[4] = system: basil ‘Genovese’; assay: Yield, fresh weight of basil after insecticide, fungicide, PGRs and safeners (Example 4, Table 10); assay type: in vivo; conditions: DA-A, check 31.8
In short: as §1

[5] = system: basil 'Genovese'; assay: Visual injury of basil after insecticide, fungicide, PGRs, safeners (Example 4)
In short: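 Read-out: percent visual injury, 0 (no visual response) to 100 (complete plant death), covering general phytotoxicity, chlorosis and stunting. Treatments were chlorpyrifos, chlorothalonil, mepiquat-chloride, paclobutrazol, napthalic anhydride, isoxadifen-ethyl, applied postemergence. Harvest at ~4 weeks.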

[6] = rates g ai/ha: chlroprifos 3370, chlorothalonil 7900, paclobutrazol 9.7, mepiquat-chloride 37, Isoxadifen 16, Napthalic anhydride 527, + NIS 0.25 % v/v
[7] = rates g ai/ha: chlropyrifos 1120, chlorothalonil 2630, paclobutrazol 3.23, mepiquat-chloride 12.3, Isoxadifen 8, Napthalic anhydride 264, + NIS 0.25 % v/v
[8] = 7 DA-A, rates g ai/ha: chlropyrifos 1120, chlorothalonil 2630, paclobutrazol 3.23, mepiquat-chloride 12.3, + NIS 0.25 % v/v
[9] = 7 DA-A, rates g ai/ha: chlropyrifos 3370, chlorothalonil 7900, paclobutrazol 9.7, mepiquat-chloride 37, + NIS 0.25 % v/v
[10] = 14 DA-A, rates g ai/ha: chlropyrifos 1120, chlorothalonil 2630, paclobutrazol 3.23, mepiquat-chloride 12.3, + NIS 0.25 % v/v
[11] = 14 DA-A, rates g ai/ha: chlropyrifos 3370, chlorothalonil 7900, paclobutrazol 9.7, mepiquat-chloride 37, + NIS 0.25 % v/v
[12] = 28 DA-A, rates g ai/ha: chlropyrifos 1120, chlorothalonil 2630, paclobutrazol 3.23, mepiquat-chloride 12.3, + NIS 0.25 % v/v
[13] = 28 DA-A, rates g ai/ha: chlropyrifos 3370, chlorothalonil 7900, paclobutrazol 9.7, mepiquat-chloride 37, + NIS 0.25 % v/v
[14] = 7 DA-A, rates g ai/ha: chlropyrifos 1120, chlorothalonil 2630, paclobutrazol 3.23, mepiquat-chloride 12.3, Isoxadifen 8, Napthalic anhydride 264, + NIS 0.25 % v/v
[15] = 7 DA-A, rates g ai/ha: chlropyrifos 3370, chlorothalonil 7900, paclobutrazol 9.7, mepiquat-chloride 37, Isoxadifen 16, Napthalic anhydride 527, + NIS 0.25 % v/v
[16] = 14 DA-A, rates g ai/ha: chlropyrifos 1120, chlorothalonil 2630, paclobutrazol 3.23, mepiquat-chloride 12.3, Isoxadifen 8, Napthalic anhydride 264, + NIS 0.25 % v/v

N#Cc1c(Cl)c(Cl)c(Cl)c(C#N)c1Cl [chlorothalonil]
ADF, Percent Increase Over the Untreated Check (on a % dry matter basis) [1, 6]: 1 % check
Calcium, Percent Increase Over the Untreated Check (on a % dry matter basis) [1, 6]: −15 % check
Copper, Percent Increase Over the Untreated Check (on a % dry matter basis) [1, 6]: −17 % check
Iron, Percent Increase Over the Untreated Check (on a % dry matter basis) [1, 6]: 25 % check
Magnesium, Percent Increase Over the Untreated Check (on a % dry matter basis) [1, 6]: −6 % check
Manganese, Percent Increase Over the Untreated Check (on a % dry matter basis) [1, 6]: −8 % check
NDF, Percent Increase Over the Untreated Check (on a % dry matter basis) [1, 6]: 12 % check
Phosphorous, Percent Increase Over the Untreated Check (on a % dry matter basis) [1, 6]: 0 % check
Potassium, Percent Increase Over the Untreated Check (on a % dry matter basis) [1, 6]: 7 % check
Protein, Percent Increase Over the Untreated Check (on a % dry matter basis) [1, 6]: 3 % check
Sodium, Percent Increase Over the Untreated Check (on a % dry matter basis) [1, 6]: 50 % check
Soluble protein, Percent Increase Over the Untreated Check (on a % dry matter basis) [1, 6]: 42 % check
Zinc, Percent Increase Over the Untreated Check (on a % dry matter basis) [1, 6]: −6 % check
ADF, Percent Increase Over the Untreated Check (on a % dry matter basis) [1, 7]: 1 % check
Calcium, Percent Increase Over the Untreated Check (on a % dry matter basis) [1, 7]: 0 % check
Copper, Percent Increase Over the Untreated Check (on a % dry matter basis) [1, 7]: −17 % check
Iron, Percent Increase Over the Untreated Check (on a % dry matter basis) [1, 7]: 37 % check
Magnesium, Percent Increase Over the Untreated Check (on a % dry matter basis) [1, 7]: 3 % check
Manganese, Percent Increase Over the Untreated Check (on a % dry matter basis) [1, 7]: 43 % check
NDF, Percent Increase Over the Untreated Check (on a % dry matter basis) [1, 7]: 6 % check
Phosphorous, Percent Increase Over the Untreated Check (on a % dry matter basis) [1, 7]: 9 % check
Potassium, Percent Increase Over the Untreated Check (on a % dry matter basis) [1, 7]: 4 % check
Protein, Percent Increase Over the Untreated Check (on a % dry matter basis) [1, 7]: 3 % check
Sodium, Percent Increase Over the Untreated Check (on a % dry matter basis) [1, 7]: 8 % check
Soluble protein, Percent Increase Over the Untreated Check (on a % dry matter basis) [1, 7]: 223 % check
Zinc, Percent Increase Over the Untreated Check (on a % dry matter basis) [1, 7]: 38 % check
Phytotoxicity Chlorosis [2, 8]: 0%
Phytotoxicity General [2, 8]: 15%
Phytotoxicity Stunting [2, 8]: 0%
Phytotoxicity Chlorosis [2, 9]: 0%
Phytotoxicity General [2, 9]: 9%
Phytotoxicity Stunting [2, 9]: 1%
Phytotoxicity Chlorosis [2, 10]: 10%
Phytotoxicity General [2, 10]: 0%
Phytotoxicity Stunting [2, 10]: 5%
Phytotoxicity Chlorosis [2, 11]: 6%
Phytotoxicity General [2, 11]: 1%
Phytotoxicity Stunting [2, 11]: 5%
Phytotoxicity Chlorosis [2, 12]: 3%
Phytotoxicity General [2, 12]: 5%
Phytotoxicity Stunting [2, 12]: 6%
Phytotoxicity Chlorosis [2, 13]: 0%
Phytotoxicity General [2, 13]: 3%
Phytotoxicity Stunting [2, 13]: 8%
Yield Fresh weight ([3]; rates g ai/ha: chlropyrifos 1120, chlorothalonil 2630, paclobutrazol 3.23, mepiquat-chloride 12.3, + NIS 0.25 % v/v): 102.5 grams
Yield Fresh weight ([3]; rates g ai/ha: chlropyrifos 3370, chlorothalonil 7900, paclobutrazol 9.7, mepiquat-chloride 37, + NIS 0.25 % v/v): 107.5 grams
Yield Fresh weight [4, 7]: 27.5 grams
Yield Fresh weight ([4]; rates g ai/ha: chlropyrifos 3370, chlorothalonil 7900, paclobutrazol 9.7, mepiquat-chloride 37, Isoxadifen 16, Napthalic anhydride 527, + NIS 0.25 % v/v): 25.9 grams
Phytotoxicity Chlorosis [5, 14]: 5%
Phytotoxicity General [5, 14]: 5%
Phytotoxicity Stunting [5, 14]: 5%
Phytotoxicity Chlorosis [5, 15]: 15%
Phytotoxicity General [5, 15]: 3%
Phytotoxicity Stunting [5, 15]: 5%
Phytotoxicity Chlorosis [5, 16]: 5%
Phytotoxicity General [5, 16]: 0%
Phytotoxicity Stunting [5, 16]: 8%
Phytotoxicity Chlorosis ([5]; 14 DA-A, rates g ai/ha: chlropyrifos 3370, chlorothalonil 7900, paclobutrazol 9.7, mepiquat-chloride 37, Isoxadifen 16, Napthalic anhydride 527, + NIS 0.25 % v/v): 5%
